Patent publication US8716285B2, “N-hydroxy-benzamids for the treatment of cancer” (Hoffmann-La Roche Inc., priority 2010, dated 2014)

Assays:
recombinant human HDAC8 = recombinant human HDAC8 (Homo sapiens (Human), UniProt Q9BY41); experiment: HDAC8 inhibition: recombinant HDAC8 fluorometric assay; assay type: biochemical; details: recombinant human HDAC8, substrate Ac-Arg-His-Lys-Lys(ε-acetyl)-AMC
Description: A competitive inhibitory assay of HDAC8 was carried out by using recombinant HDAC8 and a commercial substrate Ac-Arg-His-Lys-Lys(ε-acetyl)-AMC.
Compounds were tested for their ability to inhibit histone deacetylase 8 using an in vitro deacetylation assay. The enzyme source for this assay was recombinant human HDAC8 protein expressed and purified from insect cells. […] The substrate consisted of a commercial product Ac-Arg-His-Lys-Lys(ε-acetyl)-AMC (substrate is available from Cayman Chemical). […] In a detailed procedure, 8 μl of HDAC8 enzyme solution (0.125 μg/μl) was transferred to assay plates (CORNING 3676). 1 μl of half-log diluted compounds were added into wells and incubated for 15 min at rt. After that, 8 μl of substrate solution was transferred to the wells and incubated for 30 min at rt. After deacetylation of the substrate by incubation with HDAC8 enzyme, subsequent exposure to a developing reagent produced a fluorophore that was directly proportional to the level of deacetylation. So 4 μl of developer regent (Cayman 10006394) was added into the wells in the assay plates and incubated for 15 min. The fluorescence signal was measured by a FlexStation3 plate reader (excitation wave length 340-360 nm; emission wave length 440-465 nm). The IC50 was calculated after normalization and curve fitting using XLfit4.0 software. Inhibition %=[Mean(top)−signal(sample)]*100/[Mean(top)−Mean(bottom)].

[1] = test system: p21 promoter-luciferase construct; experiment: p21 reporter gene induction in HeLa cells transfected with p21 promoter-luciferase construct; assay type: cell-based; details: for p21 RP3: relative gene level of p21 induced compared to MS275 at 3 μM; for p21 RP10: relative level of p21 induced compared to MS275 at 10 μM; for p21 RP30: relative level of p21 induced compared to MS275 at 30 μM
Description: As a surrogate for in-cell HDAC1/2/3 inhibition, p21 induction was used as a counterscreen to evaluate the selectivity of the compounds in the present invention toward HDAC6 or HDAC8.
The novel compounds of the present invention were tested for their ability to induce p21 gene expression using a reporter gene assay involving HeLa cells transfected with a p21 promoter-luciferase construct. The p21 promoter contained the Sp1/Sp3 binding site for HDAC but not the upstream p53 binding site. Briefly, the day before transfection, HeLa cells were seeded at 11,000 cells/well in a 96-well culture plate and incubated at 37° C. in 5% CO2 overnight. A transfection media was prepared prior to transfection according to the following procedure: (1) 5 μl serum-free DMEM, 0.15 μl Fugene 6 reagent, 40 ng p21-luc, 10 ng GFP were mixed gently and incubated at rt for 30 minutes; (2), then 98 μl DMEM (with 10% FBS, 1% penicillin and streptomycin) was added to the DNA: Fugene 6 reagent complex and mixed gently. For transfection, the medium was removed and replaced with 100 μl/well transfection media which was prepared according to the procedure above. After incubating the cells for 24 hours at 37° C. in 5% CO2, fresh media and test compounds were added to the wells and the cells further incubated for 15 hours at 37° C. in 5% CO2. Cells were lysed by adding 80 μl/well of a cell culture lysis reagent (Promega). […] 100 μl luciferase assay reagent (Promega) was then added to every 20 μl cell lysate for luminometer detection. […] Induction activity for specific representative compounds can be found in Table 3.

HDAC6 = HDAC6 (Homo sapiens (Human), UniProt Q9UBN7); experiment: Tubulin acetylation cytoblot assay (A549 cells); assay type: cell-based; details: 17-18 h, concentration for 50% induction of acetylated tubulin, read-out: Tub-ac EC50
Chain of HDAC6 (Q9UBN7 whole entry): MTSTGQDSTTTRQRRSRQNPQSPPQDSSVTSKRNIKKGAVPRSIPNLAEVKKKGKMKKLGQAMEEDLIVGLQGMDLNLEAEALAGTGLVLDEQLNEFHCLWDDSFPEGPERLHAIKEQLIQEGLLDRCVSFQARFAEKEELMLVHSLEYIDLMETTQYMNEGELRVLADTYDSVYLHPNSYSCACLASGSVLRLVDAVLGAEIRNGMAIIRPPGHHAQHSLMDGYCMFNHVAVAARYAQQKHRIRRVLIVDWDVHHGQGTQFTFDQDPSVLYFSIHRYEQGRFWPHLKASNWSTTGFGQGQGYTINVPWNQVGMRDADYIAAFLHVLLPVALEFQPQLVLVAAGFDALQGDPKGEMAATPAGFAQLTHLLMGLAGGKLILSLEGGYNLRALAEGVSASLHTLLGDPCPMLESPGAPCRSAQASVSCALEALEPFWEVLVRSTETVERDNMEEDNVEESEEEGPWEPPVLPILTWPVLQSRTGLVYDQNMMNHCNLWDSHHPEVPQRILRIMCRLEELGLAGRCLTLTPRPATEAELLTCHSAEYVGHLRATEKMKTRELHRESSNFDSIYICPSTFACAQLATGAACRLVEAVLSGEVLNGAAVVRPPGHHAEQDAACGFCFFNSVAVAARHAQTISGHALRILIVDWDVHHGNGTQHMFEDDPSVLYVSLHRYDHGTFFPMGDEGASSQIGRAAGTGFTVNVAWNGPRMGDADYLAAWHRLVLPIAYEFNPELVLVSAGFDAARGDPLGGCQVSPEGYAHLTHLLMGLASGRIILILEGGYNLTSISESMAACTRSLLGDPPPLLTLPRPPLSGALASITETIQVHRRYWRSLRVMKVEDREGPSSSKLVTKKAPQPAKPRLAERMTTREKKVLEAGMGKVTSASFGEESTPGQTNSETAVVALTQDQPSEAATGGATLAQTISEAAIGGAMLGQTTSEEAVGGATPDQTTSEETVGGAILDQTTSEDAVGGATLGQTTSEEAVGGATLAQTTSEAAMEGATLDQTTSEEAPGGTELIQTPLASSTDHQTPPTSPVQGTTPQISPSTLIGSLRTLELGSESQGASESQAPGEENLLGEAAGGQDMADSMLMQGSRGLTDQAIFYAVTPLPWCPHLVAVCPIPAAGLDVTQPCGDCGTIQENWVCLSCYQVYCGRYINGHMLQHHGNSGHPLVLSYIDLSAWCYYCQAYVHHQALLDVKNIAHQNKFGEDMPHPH
Description: Tubulin acetylation is a PD marker for HDAC6 inhibition. The extent of tubulin acetylation represents the inhibitory effect on HDAC6.
Novel compounds were tested for their ability to inhibit HDAC6 using a cell-based deacetylation assay. Tubulin acetylation was detected by the anti-acetylated tubulin antibody (Sigma) and horse radish peroxidase (HRP) conjugated secondary antibody (KangChen Bio. Tech.). […] 20 μl of diluted compound solution was transferred to the cell culture plate and incubated for 17-18 h. After medium removal and fixation by formaldehyde (3.7% paraformaldehyde in TBS), the cells in the plates were treated with 180 μl of −20° C. MeOH and incubated for 5 min at rt. The cell lysis was incubated with 75 μl of primary anti-acetylated tubulin antibody and secondary HRP conjugated antibody solution (1:750 anti-acetylated tubulin, 1:750 HRP conjugated anti-mouse IgG in antibody dilution buffer not containing sodium azide) for 4 h at 4° C. By adding the HRP substrate, enhanced chemiluminescence (ECL) reagent (GE Healthcare) generated luminescence corresponding to the level of tubulin acetylation. So that 75 μl of ECL was added into the wells and the luminescence from each well was immediately quantified by the plate reader. Based on the luminescence reading, the IC50s against HDAC6 of the tested compounds were calculated by plotting the curve with XLfit4.0 software. Inhibition %=[signal(sample)−Mean(bottom)]*100/[Mean(top)−Mean(bottom)]

Chain of recombinant human HDAC8 (Q9BY41 whole entry): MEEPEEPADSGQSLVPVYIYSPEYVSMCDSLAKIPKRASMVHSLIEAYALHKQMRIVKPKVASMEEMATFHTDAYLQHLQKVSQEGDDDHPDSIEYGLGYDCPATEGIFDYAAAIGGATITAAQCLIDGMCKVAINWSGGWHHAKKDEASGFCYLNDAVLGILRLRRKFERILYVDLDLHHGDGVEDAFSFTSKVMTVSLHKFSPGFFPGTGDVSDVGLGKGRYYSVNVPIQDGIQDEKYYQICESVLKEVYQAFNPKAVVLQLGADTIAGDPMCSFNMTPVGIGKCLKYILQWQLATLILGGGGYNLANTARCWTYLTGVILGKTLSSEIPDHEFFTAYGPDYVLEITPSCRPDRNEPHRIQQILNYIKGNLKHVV

`O=C(NO)c1ccc2c(c1)CC(Nc1nccc(-c3ccc(N4CCOCC4)nc3)n1)CC2` (stereo not shown) [Example 31, 7-[4-(6-Morpholin-4-yl-pyridin-3-yl)-pyrimidin-2-ylamino]-5,6,7,8-tetrahydro-naphthalene-2-carboxylic acid hydroxyamide] was tested, and the IC50 (recombinant human HDAC8) was 320 nM, the “p21 RP3” value [1] was 0.18 and the “p21 RP10” value [1] was 0.19. The “p21 RP30” value [1] was 0.12 and the EC50 (HDAC6) was 6700 nM.

In the case of `Cc1cc(Oc2ccccc2)nc(NC2CCc3ccc(C(=O)NO)cc3C2)n1` (stereo not shown) [Example 32, 7-(4-Methyl-6-phenoxy-pyrimidin-2-ylamino)-5,6,7,8-tetrahydro-naphthalene-2-carboxylic acid hydroxyamide], the IC50 (recombinant human HDAC8) is reported as 1500 nM, the “p21 RP3” value [1] is reported as 0.26 and the “p21 RP10” value [1] is reported as 0.15. The “p21 RP30” value [1] was −0.04 and the EC50 (HDAC6) was 5200 nM.

With `O=C(NO)c1ccc2c(c1)CC(Nc1nccc(-c3cnc4ccccc4c3)n1)CC2` (stereo not shown) [Example 34, 7-(4-Quinolin-3-yl-pyrimidin-2-ylamino)-5,6,7,8-tetrahydro-naphthalene-2-carboxylic acid hydroxyamide] the IC50 (recombinant human HDAC8) was 480 nM, the “p21 RP3” value [1] was 0.42 and the “p21 RP10” value [1] was 0.31. The “p21 RP30” value [1] was −0.02 and the EC50 (HDAC6) was 7860 nM.

With `O=C(NO)c1ccc2c(c1)CC(Nc1ncc3cc(F)ccc3n1)CC2` (stereo not shown) [Example 35, 7-(6-Fluoro-quinazolin-2-ylamino)-5,6,7,8-tetrahydro-naphthalene-2-carboxylic acid hydroxyamide] the IC50 (recombinant human HDAC8) was 1780 nM, the “p21 RP3” value [1] was −0.86 and the “p21 RP10” value [1] was −0.30. The EC50 (HDAC6) was 930 nM.

With `O=C(NC1CCc2ccc(C(=O)NO)cc2C1)OCc1cccnc1` (stereo not shown) [Example 38] the IC50 (recombinant human HDAC8) was 1270 nM, the “p21 RP3” value [1] was 0.15 and the “p21 RP10” value [1] was 0.05. The “p21 RP30” value [1] was 0.02 and the EC50 (HDAC6) was 930 nM.

With `CCCCS(=O)(=O)NC1CCc2ccc(C(=O)NO)cc2C1` (stereo not shown) [Example 39, 7-(Butane-1-sulfonylamino)-5,6,7,8-tetrahydro-naphthalene-2-carboxylic acid hydroxyamid] the IC50 (recombinant human HDAC8) was 910 nM, the “p21 RP3” value [1] was 0.08 and the “p21 RP10” value [1] was 0.03. For the same molecule, the “p21 RP30” value [1] was 0.04 and the EC50 (HDAC6) was 4200 nM.

For `O=C(NO)c1ccc2c(c1)CC(NS(=O)(=O)c1ccc(Cl)cc1)CC2` (stereo not shown) [Example 41, 7-(4-Chloro-benzenesulfonylamino)-5,6,7,8-tetrahydro-naphthalene-2-carboxylic acid hydroxyamide], the IC50 (recombinant human HDAC8) was 850 nM, the “p21 RP3” value [1] was −0.15 and the “p21 RP10” value [1] was 0.35. For the same molecule, the “p21 RP30” value [1] was 0.05 and the EC50 (HDAC6) was 1070 nM.

For `O=C(NO)c1ccc2c(c1)CC(NS(=O)(=O)c1cccc(C(F)(F)F)c1)CC2` (stereo not shown) [Example 43, 7-(3-Trifluoromethyl-benzenesulfonylamino)-5,6,7,8-tetrahydro-naphthalene-2-carboxylic acid hydroxyamid], the IC50 (recombinant human HDAC8) was 370 nM, the “p21 RP3” value [1] was 0.13 and the “p21 RP10” value [1] was 0.08. The “p21 RP30” value [1] was −0.04 and the EC50 (HDAC6) was 3850 nM.

For `O=C(NO)c1ccc2c(c1)CC(NS(=O)(=O)c1ccc(F)cc1F)CC2` (stereo not shown) [Example 44, 7-(2,4-Difluoro-benzenesulfonylamino)-5,6,7,8-tetrahydro-naphthalene-2-carboxylic acid hydroxyamide], the IC50 (recombinant human HDAC8) was 210 nM, the “p21 RP3” value [1] was 0.63 and the “p21 RP10” value [1] was 0.32. For the same molecule, the “p21 RP30” value [1] was 0.56 and the EC50 (HDAC6) was 3900 nM.

With `COc1ccc(S(=O)(=O)NC2CCc3ccc(C(=O)NO)cc3C2)cc1OC` (stereo not shown) [Example 45, 7-(3,4-Dimethoxy-benzenesulfonylamino)-5,6,7,8-tetrahydro-naphthalene-2-carboxylic acid hydroxyamide] the IC50 (recombinant human HDAC8) was 390 nM, the “p21 RP3” value [1] was 0.18 and the “p21 RP10” value [1] was 0.18. For the same molecule, the “p21 RP30” value [1] was 0.46 and the EC50 (HDAC6) was 3430 nM.

For `O=C(NO)c1ccc2c(c1)CC(NS(=O)(=O)c1ccc(Cl)cc1Cl)CC2` (stereo not shown) [Example 46, 7-(2,4-Dichloro-benzenesulfonylamino)-5,6,7,8-tetrahydro-naphthalene-2-carboxylic acid hydroxyamide], the IC50 (recombinant human HDAC8) was 190 nM, the “p21 RP3” value [1] was 0.49 and the “p21 RP10” value [1] was 0.15. The “p21 RP30” value [1] was 0.01 and the EC50 (HDAC6) was 4860 nM.

For `O=C(NO)c1ccc2c(c1)CC(NS(=O)(=O)c1ccc(Cl)c(Cl)c1)CC2` (stereo not shown) [Example 47, 7-(3,4-Dichloro-benzenesulfonylamino)-5,6,7,8-tetrahydro-naphthalene-2-carboxylic acid hydroxyamide], the IC50 (recombinant human HDAC8) was 470 nM, the “p21 RP3” value [1] was 0.08 and the “p21 RP10” value [1] was 0.01. The “p21 RP30” value [1] was −0.04 and the EC50 (HDAC6) was 3420 nM.

`O=C(NO)c1ccc2c(c1)CC(NS(=O)(=O)c1cccnc1)CC2` (stereo not shown) [Example 48, 7-(Pyridine-3-sulfonylamino)-5,6,7,8-tetrahydro-naphthalene-2-carboxylic acid hydroxyamide] was tested, and the IC50 (recombinant human HDAC8) was 370 nM, the “p21 RP3” value [1] was 0.41 and the “p21 RP10” value [1] was 0.17. The “p21 RP30” value [1] was 0.17 and the EC50 (HDAC6) was 6200 nM.

`O=C(NO)c1cc2c(cc1F)CCC(Nc1nccc(-c3cccnc3)n1)C2` (stereo not shown) [Example 50, 3-Fluoro-7-(4-pyridin-3-yl-pyrimidin-2-ylamino)-5,6,7,8-tetrahydro-naphthalene-2-carboxylic acid hydroxyamide] was tested, and the IC50 (recombinant human HDAC8) was 1510 nM, the “p21 RP3” value [1] was 0.26 and the “p21 RP10” value [1] was 0.03. The “p21 RP30” value [1] was −0.01 and the EC50 (HDAC6) was 6430 nM.

`O=C(NO)c1cc2c(cc1F)CCC(NS(=O)(=O)c1ccc(Cl)cc1)C2` (stereo not shown) [Example 51, 7-(4-Chloro-benzenesulfonylamino)-3-fluoro-5,6,7,8-tetrahydro-naphthalene-2-carboxylic acid hydroxyamide] was tested, and the IC50 (recombinant human HDAC8) was 1280 nM, the “p21 RP3” value [1] was 0.20 and the “p21 RP10” value [1] was 0.03. The “p21 RP30” value [1] was 0.00 and the EC50 (HDAC6) was 5200 nM.

In the case of `O=C(NO)c1cc2c(cc1F)CCC(NS(=O)(=O)c1cccc(Cl)c1)C2` (stereo not shown) [Example 52, 7-(3-Chloro-benzenesulfonylamino)-3-fluoro-5,6,7,8-tetrahydro-naphthalene-2-carboxylic acid hydroxyamide], the IC50 (recombinant human HDAC8) is reported as 930 nM, the “p21 RP3” value [1] is reported as 0.12 and the “p21 RP10” value [1] is reported as 0.01. The “p21 RP30” value [1] was −0.02 and the EC50 (HDAC6) was 3740 nM.
